Experiments:
[1] = target: Mitotic checkpoint serine/threonine-protein kinase BUB1 (Homo sapiens) (UniProt O43683); details: Compound concentration 1000.0 nM
[2] = target: Tyrosine-protein kinase receptor UFO (Homo sapiens) (UniProt P30530); details: Compound concentration 1000.0 nM
[3] = target: Tyrosine-protein kinase receptor TYRO3 (Homo sapiens) (UniProt Q06418); details: Compound concentration 1000.0 nM
[4] = target: Cyclin-dependent kinase 17 (Homo sapiens) (UniProt Q00537); details: Compound concentration 1000.0 nM
[5] = target: Serine/threonine-protein kinase ICK (Homo sapiens) (UniProt Q9UPZ9); details: Compound concentration 1000.0 nM
[6] = target: Tyrosine-protein kinase Fes/Fps (Homo sapiens) (UniProt P07332); details: Compound concentration 1000.0 nM
[7] = target: Melatonin receptor type 1B (Homo sapiens) (UniProt P49286); assay: MT2 (ML1B) (h) Eurofins-Cerep binding assay; set-up: ligand concentration 0.05 nM; details: filed as agonist, Compound concentration 10.0 uM
Sequence of Melatonin receptor type 1B (Homo sapiens) (P49286 whole entry): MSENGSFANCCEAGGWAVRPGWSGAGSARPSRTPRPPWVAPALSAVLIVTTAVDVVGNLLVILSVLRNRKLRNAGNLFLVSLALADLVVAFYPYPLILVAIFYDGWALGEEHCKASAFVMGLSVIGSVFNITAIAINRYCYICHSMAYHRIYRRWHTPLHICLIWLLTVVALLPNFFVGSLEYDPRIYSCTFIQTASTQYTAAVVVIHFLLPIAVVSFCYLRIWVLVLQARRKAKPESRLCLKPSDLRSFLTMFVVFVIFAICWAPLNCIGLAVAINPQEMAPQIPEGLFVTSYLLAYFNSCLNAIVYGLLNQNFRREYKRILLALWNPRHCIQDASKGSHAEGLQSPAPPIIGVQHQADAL

[8] = target: Mitogen-activated protein kinase kinase kinase 10 (Homo sapiens) (UniProt Q02779); details: Compound concentration 1000.0 nM
Sequence of Mitogen-activated protein kinase kinase kinase 10 (Homo sapiens) (Q02779 whole entry, looked up): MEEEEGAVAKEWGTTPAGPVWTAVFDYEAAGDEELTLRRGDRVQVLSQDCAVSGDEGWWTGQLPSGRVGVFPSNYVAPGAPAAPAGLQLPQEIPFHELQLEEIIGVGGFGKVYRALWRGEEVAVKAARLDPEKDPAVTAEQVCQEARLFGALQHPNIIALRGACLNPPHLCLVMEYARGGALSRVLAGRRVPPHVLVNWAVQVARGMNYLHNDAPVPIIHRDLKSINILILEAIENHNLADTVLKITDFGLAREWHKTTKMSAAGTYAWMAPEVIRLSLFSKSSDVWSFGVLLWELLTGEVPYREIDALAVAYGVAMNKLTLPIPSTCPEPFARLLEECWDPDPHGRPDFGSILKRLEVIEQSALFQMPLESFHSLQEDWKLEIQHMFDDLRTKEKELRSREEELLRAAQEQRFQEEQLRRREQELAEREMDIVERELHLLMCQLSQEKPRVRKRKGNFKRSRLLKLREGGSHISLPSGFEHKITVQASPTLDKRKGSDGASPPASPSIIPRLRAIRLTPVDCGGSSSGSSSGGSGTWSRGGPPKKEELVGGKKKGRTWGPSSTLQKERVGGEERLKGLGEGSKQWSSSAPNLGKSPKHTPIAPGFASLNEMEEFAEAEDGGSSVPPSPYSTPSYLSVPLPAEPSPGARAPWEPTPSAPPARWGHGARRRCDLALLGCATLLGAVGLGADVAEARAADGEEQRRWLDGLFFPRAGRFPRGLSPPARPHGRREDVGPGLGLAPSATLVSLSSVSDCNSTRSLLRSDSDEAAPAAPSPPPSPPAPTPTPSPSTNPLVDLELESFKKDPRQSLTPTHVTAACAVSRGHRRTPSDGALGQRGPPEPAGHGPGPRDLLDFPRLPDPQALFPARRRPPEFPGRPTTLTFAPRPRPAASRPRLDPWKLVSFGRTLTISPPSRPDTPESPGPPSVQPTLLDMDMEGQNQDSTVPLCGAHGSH

[9] = target: GABA-A receptor; alpha-1/beta-2/gamma-2 (Homo sapiens) (UniProt P14867+P47870+P18507); assay: GABAA1 (h) (alpha1,beta2,gamma2) Eurofins-Cerep binding assay; type: protein-complex assay; set-up: ligand concentration 15 nM; details: filed as agonist, Compound concentration 10.0 uM
[10] = target: LIM domain kinase 1 (Homo sapiens) (UniProt P53667); details: Compound concentration 1000.0 nM
[11] = target: Peripheral plasma membrane protein CASK (Homo sapiens) (UniProt O14936); details: Compound concentration 1000.0 nM
[12] = target: Serine/threonine-protein kinase ULK1 (Homo sapiens) (UniProt O75385); details: Compound concentration 1000.0 nM
[13] = target: Phosphatidylinositol 4-phosphate 3-kinase C2 domain-containing subunit beta (Homo sapiens) (UniProt O00750); details: Compound concentration 1000.0 nM
[14] = target: Vasoactive intestinal polypeptide receptor 1 (Homo sapiens) (UniProt P32241); assay: VPAC1 (VIP1) (h) Eurofins-Cerep binding assay; set-up: ligand concentration 0.04 nM; details: filed as agonist, Compound concentration 10.0 uM
[15] = target: Serine/threonine-protein kinase Nek7 (Homo sapiens) (UniProt Q8TDX7); details: Compound concentration 1000.0 nM
[16] = target: Ephrin type-A receptor 8 (Homo sapiens) (UniProt P29322); details: Compound concentration 1000.0 nM
[17] = target: Serine/threonine-protein kinase ULK3 (Homo sapiens) (UniProt Q6PHR2); details: Compound concentration 1000.0 nM
[18] = target: Serine/threonine-protein kinase N1 (Homo sapiens) (UniProt Q16512); details: Compound concentration 1000.0 nM
[19] = target: RAC-alpha serine/threonine-protein kinase (Homo sapiens) (UniProt P31749); details: Compound concentration 1000.0 nM
[20] = target: MAO-A (amine oxidase [flavin-containing] A) (Rattus norvegicus, UniProt P21396); assay: MAO-A Eurofins-Cerep binding assay; set-up: incubation time 60 min, incubation temperature 37°C, ligand concentration 10 nM; details: rat cerebral cortex (source of protein), probe [3H]Ro 41-1049 (10 nM), compound concentration 10 uM, read-out: % Inhibition of Control Specific Binding (Mean n=2)
[21] = target: Serine/threonine-protein kinase ULK2 (Homo sapiens) (UniProt Q8IYT8); details: Compound concentration 1000.0 nM
[22] = target: Ribosomal protein S6 kinase alpha-5 (Homo sapiens) (UniProt O75582); details: Compound concentration 1000.0 nM
Sequence of Ribosomal protein S6 kinase alpha-5 (Homo sapiens) (O75582 whole entry, looked up): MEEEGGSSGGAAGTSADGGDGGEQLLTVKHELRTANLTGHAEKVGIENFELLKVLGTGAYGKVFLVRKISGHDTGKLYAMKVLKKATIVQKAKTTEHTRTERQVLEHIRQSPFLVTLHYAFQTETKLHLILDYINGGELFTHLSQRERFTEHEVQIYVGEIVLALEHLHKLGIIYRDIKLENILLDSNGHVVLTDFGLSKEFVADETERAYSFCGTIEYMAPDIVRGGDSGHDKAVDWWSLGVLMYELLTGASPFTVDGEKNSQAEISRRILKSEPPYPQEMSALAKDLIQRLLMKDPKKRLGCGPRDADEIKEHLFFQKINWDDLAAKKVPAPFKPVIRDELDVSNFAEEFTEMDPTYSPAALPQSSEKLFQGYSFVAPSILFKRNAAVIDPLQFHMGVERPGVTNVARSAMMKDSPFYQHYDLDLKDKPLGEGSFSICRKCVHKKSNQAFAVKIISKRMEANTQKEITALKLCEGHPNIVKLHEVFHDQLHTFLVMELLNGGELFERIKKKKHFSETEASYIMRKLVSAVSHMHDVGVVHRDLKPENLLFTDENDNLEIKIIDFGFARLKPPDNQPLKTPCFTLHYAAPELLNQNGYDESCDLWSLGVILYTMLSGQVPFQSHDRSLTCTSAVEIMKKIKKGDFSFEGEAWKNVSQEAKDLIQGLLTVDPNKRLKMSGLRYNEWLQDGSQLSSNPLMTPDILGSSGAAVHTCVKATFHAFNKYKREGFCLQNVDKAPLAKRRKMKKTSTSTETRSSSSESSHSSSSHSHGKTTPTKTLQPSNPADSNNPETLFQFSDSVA

[23] = target: Ribosomal protein S6 kinase alpha-5 (Homo sapiens) (UniProt O75582); details: Compound concentration 1000.0 nM; remark: listed apart in the source
[24] = system: Serine/threonine-protein kinase B-raf (Homo sapiens), P15056 [V600E]; details: Compound concentration 1000.0 nM
[25] = target: Ribosomal protein S6 kinase alpha-1 (Homo sapiens) (UniProt Q15418); details: Compound concentration 1000.0 nM
[26] = target: 5'-AMP-activated protein kinase catalytic subunit alpha-2 (Homo sapiens) (UniProt P54646); details: Compound concentration 1000.0 nM
[27] = target: Serine/threonine-protein kinase LATS2 (Homo sapiens) (UniProt Q9NRM7); details: Compound concentration 1000.0 nM
Sequence of Serine/threonine-protein kinase LATS2 (Homo sapiens) (Q9NRM7 whole entry): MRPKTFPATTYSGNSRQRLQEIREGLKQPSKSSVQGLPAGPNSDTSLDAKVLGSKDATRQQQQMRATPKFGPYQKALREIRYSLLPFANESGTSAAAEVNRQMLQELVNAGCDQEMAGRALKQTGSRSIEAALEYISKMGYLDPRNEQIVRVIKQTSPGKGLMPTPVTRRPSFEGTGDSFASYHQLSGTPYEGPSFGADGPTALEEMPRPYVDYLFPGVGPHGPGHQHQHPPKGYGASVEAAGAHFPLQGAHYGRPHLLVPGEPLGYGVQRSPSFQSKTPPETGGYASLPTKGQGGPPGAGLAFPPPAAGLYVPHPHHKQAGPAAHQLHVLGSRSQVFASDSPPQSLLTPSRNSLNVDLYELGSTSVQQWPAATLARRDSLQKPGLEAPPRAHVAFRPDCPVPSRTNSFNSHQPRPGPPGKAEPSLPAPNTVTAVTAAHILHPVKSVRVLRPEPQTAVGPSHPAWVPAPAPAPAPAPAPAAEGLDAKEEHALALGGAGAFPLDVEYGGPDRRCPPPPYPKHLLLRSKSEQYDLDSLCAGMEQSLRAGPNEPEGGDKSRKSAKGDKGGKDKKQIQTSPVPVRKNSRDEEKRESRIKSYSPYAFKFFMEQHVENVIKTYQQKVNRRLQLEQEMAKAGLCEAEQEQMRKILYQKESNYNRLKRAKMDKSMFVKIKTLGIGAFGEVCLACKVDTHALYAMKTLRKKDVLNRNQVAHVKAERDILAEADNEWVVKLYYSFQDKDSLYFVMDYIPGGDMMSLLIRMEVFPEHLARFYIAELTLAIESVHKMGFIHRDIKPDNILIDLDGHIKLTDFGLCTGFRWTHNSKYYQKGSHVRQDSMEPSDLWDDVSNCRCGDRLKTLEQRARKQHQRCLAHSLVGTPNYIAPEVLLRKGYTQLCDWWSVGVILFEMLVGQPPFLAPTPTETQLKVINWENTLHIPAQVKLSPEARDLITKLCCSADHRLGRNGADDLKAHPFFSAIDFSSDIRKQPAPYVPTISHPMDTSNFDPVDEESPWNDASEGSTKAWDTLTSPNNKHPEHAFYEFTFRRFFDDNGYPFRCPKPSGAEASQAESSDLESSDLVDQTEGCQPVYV

[28] = target: Serine/threonine-protein kinase mTOR (Homo sapiens) (UniProt P42345); details: Compound concentration 1000.0 nM
[29] = target: Sulfonylurea receptors; K-ATP channels (Rattus norvegicus) (UniProt Q63563+P70673+Q63664+Q09429); assay: KATP channel Eurofins-Cerep binding assay; type: protein-complex assay; details: filed as antagonist, Compound concentration 10.0 uM
[30] = target: Calcium/calmodulin-dependent protein kinase type 1B (Homo sapiens) (UniProt Q6P2M8); details: Compound concentration 1000.0 nM
[31] = target: Maternal embryonic leucine zipper kinase (Homo sapiens) (UniProt Q14680); details: Compound concentration 1000.0 nM
[32] = target: Serine/threonine-protein kinase pim-2 (Homo sapiens) (UniProt Q9P1W9); details: Compound concentration 1000.0 nM
[33] = target: 5-hydroxytryptamine receptor 1A (Homo sapiens) (UniProt P08908); assay: 5-HT1A (h) Eurofins-Cerep binding assay; set-up: ligand concentration 0.5 nM; details: filed as agonist, Compound concentration 10.0 uM
[34] = target: Dual specificity testis-specific protein kinase 1 (Homo sapiens) (UniProt Q15569); details: Compound concentration 1000.0 nM
[35] = target: Mitogen-activated protein kinase kinase kinase 5 (Homo sapiens) (UniProt Q99683); details: Compound concentration 1000.0 nM
[36] = target: Protein kinase C theta type (Homo sapiens) (UniProt Q04759); details: Compound concentration 1000.0 nM
Sequence of Protein kinase C theta type (Homo sapiens) (Q04759 whole entry, looked up): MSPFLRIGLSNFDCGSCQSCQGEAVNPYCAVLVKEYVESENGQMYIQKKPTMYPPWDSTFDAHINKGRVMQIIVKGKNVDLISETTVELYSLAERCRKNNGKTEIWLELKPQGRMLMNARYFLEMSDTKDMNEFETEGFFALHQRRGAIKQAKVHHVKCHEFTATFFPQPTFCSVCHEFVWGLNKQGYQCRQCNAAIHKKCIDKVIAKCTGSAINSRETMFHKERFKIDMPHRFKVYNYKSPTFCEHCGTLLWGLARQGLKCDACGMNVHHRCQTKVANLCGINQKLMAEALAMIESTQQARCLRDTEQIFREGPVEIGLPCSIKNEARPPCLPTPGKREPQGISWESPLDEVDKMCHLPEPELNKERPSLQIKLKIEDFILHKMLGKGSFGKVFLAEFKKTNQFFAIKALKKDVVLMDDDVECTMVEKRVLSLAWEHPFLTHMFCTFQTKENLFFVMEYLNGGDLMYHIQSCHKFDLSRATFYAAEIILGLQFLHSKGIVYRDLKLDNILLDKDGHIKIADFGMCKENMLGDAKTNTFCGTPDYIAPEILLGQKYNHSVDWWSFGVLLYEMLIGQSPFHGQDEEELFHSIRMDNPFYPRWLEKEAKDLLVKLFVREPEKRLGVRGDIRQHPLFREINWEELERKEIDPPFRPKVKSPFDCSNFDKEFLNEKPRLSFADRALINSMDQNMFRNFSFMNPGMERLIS

[37] = target: Proto-oncogene tyrosine-protein kinase receptor Ret (Homo sapiens) (UniProt P07949); details: Compound concentration 1000.0 nM
[38] = target: Sodium- and chloride-dependent GABA transporter 1 (Rattus norvegicus) (UniProt P23978); assay: GABA transporter Eurofins-Cerep binding assay; set-up: ligand concentration 10 nM; details: filed as antagonist, Compound concentration 10.0 uM
[39] = target: Protein-tyrosine kinase 6 (Homo sapiens) (UniProt Q13882); details: Compound concentration 1000.0 nM
[40] = target: Dual specificity mitogen-activated protein kinase kinase 5 (Homo sapiens) (UniProt Q13163); details: Compound concentration 1000.0 nM
[41] = target: Phosphatidylinositol 3-kinase catalytic subunit type 3 (Homo sapiens) (UniProt Q8NEB9); details: Compound concentration 1000.0 nM
[42] = target: Serine/threonine-protein kinase Nek9 (Homo sapiens) (UniProt Q8TD19); details: Compound concentration 1000.0 nM

Sequence of Mitotic checkpoint serine/threonine-protein kinase BUB1 (Homo sapiens) (O43683 whole entry, looked up): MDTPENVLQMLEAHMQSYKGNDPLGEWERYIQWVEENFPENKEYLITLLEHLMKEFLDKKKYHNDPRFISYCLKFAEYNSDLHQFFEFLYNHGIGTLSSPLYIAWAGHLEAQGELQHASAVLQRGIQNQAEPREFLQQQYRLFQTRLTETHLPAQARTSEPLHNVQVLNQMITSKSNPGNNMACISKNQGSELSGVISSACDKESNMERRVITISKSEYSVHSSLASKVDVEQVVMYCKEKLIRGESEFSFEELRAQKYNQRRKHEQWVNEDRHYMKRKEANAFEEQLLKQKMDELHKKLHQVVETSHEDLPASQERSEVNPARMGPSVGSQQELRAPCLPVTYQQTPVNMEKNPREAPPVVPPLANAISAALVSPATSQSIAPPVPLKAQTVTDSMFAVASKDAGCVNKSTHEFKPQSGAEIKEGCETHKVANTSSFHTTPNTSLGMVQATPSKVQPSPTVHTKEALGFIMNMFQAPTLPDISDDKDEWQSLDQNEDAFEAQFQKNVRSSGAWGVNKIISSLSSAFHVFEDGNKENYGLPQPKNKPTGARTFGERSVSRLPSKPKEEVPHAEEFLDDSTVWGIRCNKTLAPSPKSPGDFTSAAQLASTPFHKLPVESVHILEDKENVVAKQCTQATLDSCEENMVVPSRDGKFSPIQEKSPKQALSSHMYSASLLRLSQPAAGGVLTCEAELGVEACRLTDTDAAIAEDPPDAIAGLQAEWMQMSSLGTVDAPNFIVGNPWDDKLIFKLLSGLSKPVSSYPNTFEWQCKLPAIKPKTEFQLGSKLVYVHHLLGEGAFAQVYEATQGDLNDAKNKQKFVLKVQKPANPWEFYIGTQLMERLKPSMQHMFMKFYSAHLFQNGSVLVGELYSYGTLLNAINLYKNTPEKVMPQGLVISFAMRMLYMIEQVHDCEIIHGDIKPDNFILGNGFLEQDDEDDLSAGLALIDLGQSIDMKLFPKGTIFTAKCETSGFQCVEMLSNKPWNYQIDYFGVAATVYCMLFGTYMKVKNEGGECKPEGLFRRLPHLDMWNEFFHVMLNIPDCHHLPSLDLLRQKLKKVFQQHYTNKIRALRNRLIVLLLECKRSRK

For `CCCOc1ccc([C@@H]2[C@@H](C(=O)O)[C@H](c3ccc4c(c3)OCO4)CN2CC(=O)Nc2c(CC)cccc2CC)cc1` [A-1806262], which residual activity [1] is on record?
Its residual activity is 92%.

What about the residual activity [2] of the same compound?
The residual activity was 93%.

What about the residual activity [3] of the same compound?
The residual activity was 94%.

What about the residual activity [4] of the same compound?
Its residual activity is 90%.

And the residual activity [5]?
Its residual activity is 100%.

And the residual activity [6]?
The residual activity was 97%.

What about the % Inhibition of Control Specific Binding (Mean n=2) [7] of the same compound?
The % Inhibition of Control Specific Binding (Mean n=2) was -3.1%.

And the residual activity [8]?
The residual activity was 100%.

And the % Inhibition of Control Specific Binding (Mean n=2) [9]?
The % Inhibition of Control Specific Binding (Mean n=2) was -33.6%.

What about the residual activity [10] of the same compound?
Its residual activity is 90%.

What about the residual activity [11] of the same compound?
Its residual activity is 89%.

What about the residual activity [12] of the same compound?
Its residual activity is 77%.

What about the residual activity [13] of the same compound?
Its residual activity is 94%.

What about the % Inhibition of Control Specific Binding (Mean n=2) [14] of the same compound?
The % Inhibition of Control Specific Binding (Mean n=2) was -1.5%.

What about the residual activity [15] of the same compound?
Its residual activity is 100%.

What about the residual activity [16] of the same compound?
The residual activity was 97%.

And the residual activity [17]?
The residual activity was 83%.

What about the residual activity [18] of the same compound?
The residual activity was 100%.

And the residual activity [19]?
The residual activity was 100%.

And the inhibition at 60 min, 10 µM [20]?
The inhibition at 60 min, 10 µM was 9.9%.

And the residual activity [21]?
The residual activity was 76%.

And the residual activity [22]?
Its residual activity is 99%.

What about the residual activity [23] of the same compound?
The residual activity was 97%.

And the residual activity [24]?
Its residual activity is 98%.

What about the residual activity [25] of the same compound?
The residual activity was 100%.

What about the residual activity [26] of the same compound?
The residual activity was 95%.

What about the residual activity [27] of the same compound?
The residual activity was 100%.

What about the residual activity [28] of the same compound?
The residual activity was 100%.

And the % Inhibition of Control Specific Binding (Mean n=2) [29]?
Its % Inhibition of Control Specific Binding (Mean n=2) is 6%.

And the residual activity [30]?
Its residual activity is 100%.

What about the residual activity [31] of the same compound?
Its residual activity is 84%.

And the residual activity [32]?
Its residual activity is 99%.

What about the % Inhibition of Control Specific Binding (Mean n=2) [33] of the same compound?
The % Inhibition of Control Specific Binding (Mean n=2) was -3.8%.

What about the residual activity [34] of the same compound?
The residual activity was 100%.

What about the residual activity [35] of the same compound?
The residual activity was 97%.

And the residual activity [36]?
The residual activity was 100%.

What about the residual activity [37] of the same compound?
Its residual activity is 97%.

What about the % Inhibition of Control Specific Binding (Mean n=2) [38] of the same compound?
Its % Inhibition of Control Specific Binding (Mean n=2) is -17.3%.

What about the residual activity [39] of the same compound?
The residual activity was 83%.

What about the residual activity [40] of the same compound?
Its residual activity is 100%.

What about the residual activity [41] of the same compound?
Its residual activity is 88%.

What about the residual activity [42] of the same compound?
The residual activity was 100%.

`CCCOc1ccc([C@H]2[C@H](C(=O)O)[C@@H](c3ccc4c(c3)OCO4)CN2CC(=O)Nc2c(CC)cccc2CC)cc1` [A-192621] was tested. Which residual activity [1] did it give?
The residual activity was 98%.

And the residual activity [2]?
The residual activity was 83%.

What about the residual activity [3] of the same compound?
Its residual activity is 100%.

And the residual activity [4]?
The residual activity was 91%.

What about the residual activity [5] of the same compound?
The residual activity was 59%.

And the residual activity [6]?
Its residual activity is 96%.

And the % Inhibition of Control Specific Binding (Mean n=2) [7]?
Its % Inhibition of Control Specific Binding (Mean n=2) is 2.4%.

And the residual activity [8]?
The residual activity was 100%.

What about the % Inhibition of Control Specific Binding (Mean n=2) [9] of the same compound?
Its % Inhibition of Control Specific Binding (Mean n=2) is -34%.

What about the residual activity [10] of the same compound?
Its residual activity is 100%.

And the residual activity [11]?
The residual activity was 77%.

What about the residual activity [12] of the same compound?
Its residual activity is 68%.

And the residual activity [13]?
The residual activity was 92%.

And the % Inhibition of Control Specific Binding (Mean n=2) [14]?
The % Inhibition of Control Specific Binding (Mean n=2) was -7.7%.

And the residual activity [15]?
The residual activity was 96%.

What about the residual activity [16] of the same compound?
The residual activity was 98%.

And the residual activity [17]?
Its residual activity is 72%.

And the residual activity [18]?
The residual activity was 87%.

And the residual activity [19]?
The residual activity was 97%.

And the inhibition at 60 min, 10 µM [20]?
Its inhibition at 60 min, 10 µM is 7.9%.

What about the residual activity [21] of the same compound?
Its residual activity is 55%.

And the residual activity [22]?
Its residual activity is 98%.

And the residual activity [23]?
Its residual activity is 89%.

What about the residual activity [24] of the same compound?
Its residual activity is 76%.

What about the residual activity [25] of the same compound?
The residual activity was 87%.

What about the residual activity [26] of the same compound?
The residual activity was 100%.

What about the residual activity [27] of the same compound?
The residual activity was 97%.

What about the residual activity [28] of the same compound?
Its residual activity is 77%.

And the % Inhibition of Control Specific Binding (Mean n=2) [29]?
The % Inhibition of Control Specific Binding (Mean n=2) was 11.1%.

And the residual activity [30]?
Its residual activity is 77%.

And the residual activity [31]?
The residual activity was 65%.

And the residual activity [32]?
The residual activity was 91%.

And the % Inhibition of Control Specific Binding (Mean n=2) [33]?
Its % Inhibition of Control Specific Binding (Mean n=2) is -5.9%.

And the residual activity [34]?
Its residual activity is 89%.

What about the residual activity [35] of the same compound?
Its residual activity is 91%.

And the residual activity [36]?
The residual activity was 81%.

And the residual activity [37]?
Its residual activity is 86%.

And the % Inhibition of Control Specific Binding (Mean n=2) [38]?
The % Inhibition of Control Specific Binding (Mean n=2) was -12%.

What about the residual activity [39] of the same compound?
Its residual activity is 84%.

What about the residual activity [40] of the same compound?
The residual activity was 63%.

And the residual activity [41]?
Its residual activity is 78%.

And the residual activity [42]?
Its residual activity is 95%.

Reference: ChEMBL document CHEMBL4507261, “Data for DCP probe A-192621” (2021)
